Results on 26 molecules are retold here after patent US20260138990A1, “TRICYCLIC FUSED IMIDAZOLE COMPOUNDS AS CD38 MODULATORS AND USES THEREOF” (AEOVIAN PHARMACEUTICALS, INC., priority 2023, published 2026).

A value given as a limit tells only on which side of the number the result lay.

The IC50 is the midpoint of a concentration-inhibition curve.

For one assay, the target named is T1, mouse CD38 (Mus musculus, UniProt P56528).
T1 construct: purchased Bio-Techne GmbH 4947-AC
T1 sequence (P56528 1-304): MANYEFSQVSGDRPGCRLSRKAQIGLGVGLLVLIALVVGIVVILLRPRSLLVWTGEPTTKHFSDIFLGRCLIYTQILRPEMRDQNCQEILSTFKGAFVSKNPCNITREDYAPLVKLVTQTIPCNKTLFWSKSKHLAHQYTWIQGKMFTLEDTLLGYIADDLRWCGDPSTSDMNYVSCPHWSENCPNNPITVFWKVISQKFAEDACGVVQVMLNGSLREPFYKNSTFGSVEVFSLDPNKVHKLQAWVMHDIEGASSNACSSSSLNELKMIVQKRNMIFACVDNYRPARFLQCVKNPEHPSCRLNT
Nature of the assay: NAD+ cyclase activity assay with mouse recombinant CD38 protein (ε-NAD fluorescence). The note with it: 0.6 nM mouse CD38, substrate ε-NAD, 30 min preincubation, fluorescence 300/410 nm. It counts as biochemical. The gist of the method: (§1)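 Recombinant CD38 (0.6 nM mouse or 1.9 nM human) in 40 mM HEPES/NaOH pH 7.5, 250 mM sucrose, 0.01% Tween was preincubated with compound for 30 min at room temperature, then […] ε-NAD was added. Fluorescence (ex 300/em 410 nm) was read continuously. Slopes over the linear phase were normalised to enzyme and no-enzyme controls and fitted from 12-point, threefold dose-response curves.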

Another assay concerns the target T2, human CD38 (Homo sapiens, UniProt P28907).
T2 construct: purchased Bio-Techne GmbH AVI2404
T2 sequence (P28907 1-300): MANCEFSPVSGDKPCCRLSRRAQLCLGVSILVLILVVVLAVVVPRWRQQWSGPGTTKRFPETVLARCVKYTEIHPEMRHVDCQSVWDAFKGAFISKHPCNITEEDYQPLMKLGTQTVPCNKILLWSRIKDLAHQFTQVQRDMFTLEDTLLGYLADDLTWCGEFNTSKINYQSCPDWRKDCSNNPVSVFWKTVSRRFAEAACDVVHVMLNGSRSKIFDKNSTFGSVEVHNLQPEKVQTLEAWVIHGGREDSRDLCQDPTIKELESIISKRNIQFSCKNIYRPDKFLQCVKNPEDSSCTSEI
Nature of the assay: NAD+ cyclase activity assay with human recombinant CD38 protein (ε-NAD fluorescence). It counts as biochemical. The note with it: 1.9 nM human CD38, substrate ε-NAD, 30 min preincubation, fluorescence 300/410 nm. The gist of the method: as §1

For the molecule `O=C(NC1CCC(CC(F)(F)F)CC1)c1ccc2c(c1)-c1cncn1CCO2` (stereo not shown) [Compound 119A, N-(4-(2,2,2-Trifluoroethyl)cyclohexyl)-5,6-dihydrobenzo[f]imidazo[1,5-d][1,4]oxazepine-10-carboxamide], the IC50 on mouse CD38 is 1 to 10 nM; at human CD38, less than 30 nM.

With `CC(C)(CO[C@H]1CC[C@H](NC(=O)c2ccc3c(c2)-c2cncn2CCO3)CC1)C(F)(F)F` [Compound 120A, N-((1r,4r)-4-(3,3,3-Trifluoro-2,2-dimethylpropoxy)cyclohexyl)-5,6-dihydrobenzo[f]imidazo[1,5-d][1,4]oxazepine-10-carboxamide], the IC50 at mouse CD38 was 1 to 10 nM; at human CD38, less than 30 nM.

Take `CC(C)(CO[C@H]1CC[C@@H](NC(=O)c2ccc3c(c2)-c2cncn2CCO3)CC1)C(F)(F)F` [Compound 121A, N-((1s,4s)-4-(3,3,3-Trifluoro-2,2-dimethylpropoxy)cyclohexyl)-5,6-dihydrobenzo[f]imidazo[1,5-d][1,4]oxazepine-10-carboxamide]: the IC50 was more than 100 nM on mouse CD38 and more than 1000 nM at human CD38.

Turning to `O=C(N[C@H]1CC[C@H](OCC(F)(F)F)CC1)c1ccc2c(c1)-c1cncn1CCO2` [Compound 122A, N-((1r,4r)-4-(2,2,2-Trifluoroethoxy)cyclohexyl)-5,6-dihydrobenzo[f]imidazo[1,5-d][1,4]oxazepine-10-carboxamide], the IC50 is 1 to 10 nM at mouse CD38 and less than 30 nM on human CD38.

On to `O=C(N[C@H]1CC[C@@H](OCC(F)(F)F)CC1)c1ccc2c(c1)-c1cncn1CCO2` [Compound 123A, N-((1s,4s)-4-(2,2,2-Trifluoroethoxy)cyclohexyl)-5,6-dihydrobenzo[f]imidazo[1,5-d][1,4]oxazepine-10-carboxamide], for which the figures for the IC50 at mouse CD38 and at human CD38 were 10 to 100 nM and 100 to 1000 nM, respectively.

Take `O=C(Nc1cnc(N2CC(C(F)F)C2)nc1)c1ccc2c(c1)-c1cncn1CCO2` [Compound 124A, N-(2-(3-(Difluoromethyl)azetidin-1-yl)pyrimidin-5-yl)-5,6-dihydrobenzo[f]imidazo[1,5-d][1,4]oxazepine-10-carboxamide]: the IC50 is 10 to 100 nM on mouse CD38 and less than 30 nM at human CD38.

`CCC1CCC(NC(=O)c2ccc3c(c2)-c2cncn2CCO3)CC1` (stereo not shown) [Compound 125A, N-(4-Ethylcyclohexyl)-5,6-dihydrobenzo[f]imidazo[1,5-d][1,4]oxazepine-10-carboxamide]: the IC50 is 1 to 10 nM at mouse CD38 and less than 30 nM at human CD38.

For the molecule `CC(O)C1CCC(NC(=O)c2ccc3c(c2)-c2cncn2CCO3)CC1` (stereo not shown) [Compound 126A, N-(4-(1-Hydroxyethyl)cyclohexyl)-5,6-dihydrobenzo[f]imidazo[1,5-d][1,4]oxazepine-10-carboxamide], the IC50 at mouse CD38 lay in the range of 1 to 10 nM; on human CD38, 30 to 100 nM.

Take `COC(C)(C)CO[C@H]1CC[C@H](NC(=O)c2ccc3c(c2)-c2cncn2CCO3)CC1` [Compound 127A, N-((1r,4r)-4-(2-Methoxy-2-methylpropoxy)cyclohexyl)-5,6-dihydrobenzo[f]imidazo[1,5-d][1,4]oxazepine-10-carboxamide]: the values for the IC50 at mouse CD38 and at human CD38 were 1 to 10 nM and less than 30 nM, respectively.

As for `COC(C)(C)CO[C@H]1CC[C@@H](NC(=O)c2ccc3c(c2)-c2cncn2CCO3)CC1` [Compound 128A, N-((1s,4s)-4-(2-Methoxy-2-methylpropoxy)cyclohexyl)-5,6-dihydrobenzo[f]imidazo[1,5-d][1,4]oxazepine-10-carboxamide], the IC50 at mouse CD38 was in the range of 10 to 100 nM; on human CD38, 100 to 1000 nM.

With `O=C(Nc1cnc2c(c1)OCCO2)c1cc(Cl)c2c(c1)-c1cncn1CCO2` [Compound 129A, 8-Chloro-N-(2,3-dihydro-[1,4]dioxino[2,3-b]pyridin-7-yl)-5,6-dihydrobenzo[f]imidazo[1,5-d][1,4]oxazepine-10-carboxamide], the IC50 on mouse CD38 was 1 to 10 nM; at human CD38, less than 30 nM.

On to `O=C(N[C@@H]1CCCOC1)c1cc(F)c2c(c1)-c1cncn1CCO2` [Compound 130A, (R)-8-Fluoro-N-(tetrahydro-2H-pyran-3-yl)-5,6-dihydrobenzo[f]imidazo[1,5-d][1,4]oxazepine-10-carboxamide], for which the IC50 on mouse CD38 lay in the range of 1 to 10 nM; at human CD38, 30 to 100 nM.

As for `CCC(O)(CN[C@H]1CC[C@H](NC(=O)c2ccc3c(c2)-c2cncn2CCO3)CC1)C(F)(F)F` (stereo partly shown) [Compound 131A, N-((1r,4r)-4-((2-Hydroxy-2-(trifluoromethyl)butyl)amino)cyclohexyl)-5,6-dihydrobenzo[f]imidazo[1,5-d][1,4]oxazepine-10-carboxamide], the IC50 at mouse CD38 is less than 1 nM; on human CD38, less than 30 nM.

As for `O=C(N[C@@H]1CCS(=O)(=O)C1)c1cc(F)c2c(c1)-c1cncn1CCO2` [Compound 132A, (R)—N-(1,1-Dioxidotetrahydrothiophen-3-yl)-8-fluoro-5,6-dihydrobenzo[f]imidazo[1,5-d][1,4]oxazepine-10-carboxamide], the IC50 on mouse CD38 is 1 to 10 nM; at human CD38, less than 30 nM.

For the molecule `CC(C1CCC(NC(=O)c2ccc3c(c2)-c2cncn2CCO3)CC1)C(F)(F)F` (stereo not shown) [Compound 133A, N-(4-(1,1,1-Trifluoropropan-2-yl)cyclohexyl)-5,6-dihydrobenzo[f]imidazo[1,5-d][1,4]oxazepine-10-carboxamide], the IC50 on mouse CD38 was 1 to 10 nM; on human CD38 it was 30 to 100 nM.

`O=C(NC1CC(F)(F)C1)c1cc(Cl)c2c(c1)-c1cncn1CCO2` [Compound 134A, 8-Chloro-N-(3,3-difluorocyclobutyl)-5,6-dihydrobenzo[f]imidazo[1,5-d][1,4]oxazepine-10-carboxamide]: the IC50 on mouse CD38 is less than 1 nM; at human CD38, less than 30 nM.

In the case of `O=C(NC1CC(F)(F)C1)c1cc(F)c2c(c1)-c1cncn1CCO2` [Compound 135A, N-(3,3-Difluorocyclobutyl)-8-fluoro-5,6-dihydrobenzo[f]imidazo[1,5-d][1,4]oxazepine-10-carboxamide], the half-maximal inhibitory concentration (IC50) on mouse CD38 is less than 1 nM; on human CD38, less than 30 nM.

As for `CC1(F)CC(NC(=O)c2ccc3c(c2)-c2cncn2CCO3)C1` (stereo not shown) [Compound 136A, N-(3-Fluoro-3-methylcyclobutyl)-5,6-dihydrobenzo[f]imidazo[1,5-d][1,4]oxazepine-10-carboxamide], the IC50 is 1 to 10 nM at mouse CD38 and 30 to 100 nM on human CD38.

`O=C(NC1CCC(F)(F)CC1)c1cc(Cl)c2c(c1)-c1cncn1CCO2` [Compound 137A, 8-Chloro-N-(4,4-difluorocyclohexyl)-5,6-dihydrobenzo[f]imidazo[1,5-d][1,4]oxazepine-10-carboxamide]: the values for the IC50 at mouse CD38 and at human CD38 were less than 1 nM and less than 30 nM, respectively.

With `CC1(F)CC(NC(=O)c2cc(F)c3c(c2)-c2cncn2CCO3)C1` (stereo not shown) [Compound 138A, 8-Fluoro-N-(3-fluoro-3-methylcyclobutyl)-5,6-dihydrobenzo[f]imidazo[1,5-d][1,4]oxazepine-10-carboxamide], the IC50 is 1 to 10 nM at mouse CD38 and less than 30 nM on human CD38.

Regarding `O=C(NC1CCC1(F)F)c1ccc2c(c1)-c1cncn1CCO2` (stereo not shown) [Compound 139A, N-(2,2-Difluorocyclobutyl)-5,6-dihydrobenzo[f]imidazo[1,5-d][1,4]oxazepine-10-carboxamide], the figures for the IC50 on mouse CD38 and at human CD38 were less than 1 nM and less than 30 nM, respectively.

`O=C(NC1CCC1(F)F)c1cc(F)c2c(c1)-c1cncn1CCO2` (stereo not shown) [Compound 140A, N-(2,2-Difluorocyclobutyl)-8-fluoro-5,6-dihydrobenzo[f]imidazo[1,5-d][1,4]oxazepine-10-carboxamide]: the IC50 on mouse CD38 was less than 1 nM; on human CD38, less than 30 nM.

As to `CC1(C)CC(NC(=O)c2ccc3c(c2)-c2cncn2CCO3)C1` [Compound 141A, N-(3,3-Dimethylcyclobutyl)-5,6-dihydrobenzo[f]imidazo[1,5-d][1,4]oxazepine-10-carboxamide], the half-inhibitory concentration (IC50) is 1 to 10 nM on mouse CD38 and less than 30 nM at human CD38.

Consider `CC1(C)CC(NC(=O)c2cc(F)c3c(c2)-c2cncn2CCO3)C1` [Compound 143A, N-(3,3-Dimethylcyclobutyl)-8-fluoro-5,6-dihydrobenzo[f]imidazo[1,5-d][1,4]oxazepine-10-carboxamide], for which the IC50 at mouse CD38 is less than 1 nM; on human CD38 it was less than 30 nM.

`COCC1COc2cc(NC(=O)c3ccc4c(c3)-c3cncn3CCO4)cnc2O1` (stereo not shown) [Compound 144A, N-(3-(Methoxymethyl)-2,3-dihydro-[1,4]dioxino[2,3-b]pyridin-7-yl)-5,6-dihydrobenzo[f]imidazo[1,5-d][1,4]oxazepine-10-carboxamide]: the IC50 is 1 to 10 nM on mouse CD38 and less than 30 nM on human CD38.

Turning to `COCC1COc2ncc(NC(=O)c3ccc4c(c3)-c3cncn3CCO4)cc2O1` (stereo not shown) [Compound 145A, N-(2-(Methoxymethyl)-2,3-dihydro-[1,4]dioxino[2,3-b]pyridin-7-yl)-5,6-dihydrobenzo[f]imidazo[1,5-d][1,4]oxazepine-10-carboxamide], the half-maximal inhibitory concentration (IC50) was 1 to 10 nM at mouse CD38 and less than 30 nM at human CD38.
